How the values were obtained:
Assay in all cases: KINOMEscan
Type in all cases: binding
[1] = target: T1, RSK3 (Kin. Dom.1-N-term.) (Homo sapiens, UniProt Q15349)
T1 construct: RSK3 (Kin. Dom.1-N-term.); purchased Eurofins DiscoverX KINOMEscan
Method in brief: (§1)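 1 h RT binding → immobilized-ligand capture of free kinase → qPCR quantitation. Kd: 12 half-log points, max 33 μM.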

[2] = target: T2, RIPK5 (Homo sapiens, UniProt Q6XUX3)
T2 construct: purchased Eurofins DiscoverX KINOMEscan
Method in brief: as §1

[3] = target: T3, DRAK1 (Homo sapiens, UniProt Q9UEE5)
T3 construct: purchased Eurofins DiscoverX KINOMEscan
T3 sequence (Q9UEE5 whole entry): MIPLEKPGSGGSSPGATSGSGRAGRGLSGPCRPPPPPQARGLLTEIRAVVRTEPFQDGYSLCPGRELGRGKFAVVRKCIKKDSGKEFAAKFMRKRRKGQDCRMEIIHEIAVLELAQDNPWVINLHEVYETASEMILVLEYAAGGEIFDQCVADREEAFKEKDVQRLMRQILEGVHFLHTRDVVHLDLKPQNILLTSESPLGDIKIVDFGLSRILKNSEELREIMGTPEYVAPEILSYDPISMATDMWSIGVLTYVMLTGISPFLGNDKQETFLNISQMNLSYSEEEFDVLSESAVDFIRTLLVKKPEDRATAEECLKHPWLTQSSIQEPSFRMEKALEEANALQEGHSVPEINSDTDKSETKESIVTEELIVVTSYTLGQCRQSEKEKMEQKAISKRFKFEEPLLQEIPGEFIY
Method in brief: as §1

[4] = target: T4, BRAF (Homo sapiens, UniProt P15056)
T4 construct: purchased Eurofins DiscoverX KINOMEscan
Method in brief: as §1

[5] = target: T5, PKN2 (Homo sapiens, UniProt Q16513)
T5 construct: purchased Eurofins DiscoverX KINOMEscan
Method in brief: as §1

[6] = target: T6, MYO3B (Homo sapiens, UniProt Q8WXR4)
T6 construct: purchased Eurofins DiscoverX KINOMEscan
Method in brief: as §1

[7] = target: T7, ERK5 (Homo sapiens, UniProt Q13164)
T7 construct: purchased Eurofins DiscoverX KINOMEscan
Method in brief: as §1

[8] = target: T8, TSSK1B (Homo sapiens, UniProt Q9BXA7)
T8 construct: purchased Eurofins DiscoverX KINOMEscan
Method in brief: as §1

[9] = target: T9, MYLK4 (Homo sapiens, UniProt Q86YV6)
T9 construct: purchased Eurofins DiscoverX KINOMEscan
Method in brief: as §1

[10] = target: T10, SYK (Homo sapiens, UniProt P43405)
T10 construct: purchased Eurofins DiscoverX KINOMEscan
Method in brief: as §1

[11] = target: T11, CDKL3 (Homo sapiens, UniProt Q8IVW4)
T11 construct: purchased Eurofins DiscoverX KINOMEscan
Method in brief: as §1

[12] = target: T12, PIK3CA (Q546K) (Homo sapiens, UniProt P42336, Q546K)
T12 construct: purchased Eurofins DiscoverX KINOMEscan
Method in brief: as §1

[13] = target: T13, FGR (Homo sapiens, UniProt P09769)
T13 construct: purchased Eurofins DiscoverX KINOMEscan
Method in brief: as §1

[14] = target: T14, MET (Y1235D) (Homo sapiens, UniProt P08581, Y1235D)
T14 construct: purchased Eurofins DiscoverX KINOMEscan
Method in brief: as §1

[15] = target: T15, BMPR1B (Homo sapiens, UniProt O00238)
T15 construct: purchased Eurofins DiscoverX KINOMEscan
T15 sequence (O00238 14-502): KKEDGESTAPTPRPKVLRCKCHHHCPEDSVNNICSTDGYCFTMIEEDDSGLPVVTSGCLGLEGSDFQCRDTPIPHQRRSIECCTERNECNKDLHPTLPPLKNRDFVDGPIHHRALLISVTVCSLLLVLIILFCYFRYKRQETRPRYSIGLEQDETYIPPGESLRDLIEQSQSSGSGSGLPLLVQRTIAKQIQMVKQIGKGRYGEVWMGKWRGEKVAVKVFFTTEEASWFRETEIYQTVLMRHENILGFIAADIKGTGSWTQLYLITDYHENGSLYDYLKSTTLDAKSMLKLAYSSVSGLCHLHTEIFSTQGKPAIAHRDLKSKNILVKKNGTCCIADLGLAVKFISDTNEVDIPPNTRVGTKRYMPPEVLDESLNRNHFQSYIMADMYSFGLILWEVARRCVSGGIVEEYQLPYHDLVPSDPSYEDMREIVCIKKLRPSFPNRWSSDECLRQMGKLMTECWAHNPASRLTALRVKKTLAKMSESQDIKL
Method in brief: as §1

[16] = target: T16, RSK1 (Kin. Dom.1-N-term.) (Homo sapiens, UniProt Q15418)
T16 construct: RSK1 (Kin. Dom.1-N-term.); purchased Eurofins DiscoverX KINOMEscan
T16 sequence (Q15418 1-391 limits assumed): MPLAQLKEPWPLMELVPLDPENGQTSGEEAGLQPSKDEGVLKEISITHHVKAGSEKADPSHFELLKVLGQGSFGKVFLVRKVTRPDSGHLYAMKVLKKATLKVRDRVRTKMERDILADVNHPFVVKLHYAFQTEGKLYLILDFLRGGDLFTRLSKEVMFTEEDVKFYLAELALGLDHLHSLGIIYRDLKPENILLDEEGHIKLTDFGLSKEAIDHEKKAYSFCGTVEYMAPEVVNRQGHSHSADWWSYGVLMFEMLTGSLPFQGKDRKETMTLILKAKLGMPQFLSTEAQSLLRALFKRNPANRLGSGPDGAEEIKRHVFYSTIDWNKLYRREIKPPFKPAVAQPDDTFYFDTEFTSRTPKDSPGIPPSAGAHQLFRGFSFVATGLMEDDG
Method in brief: as §1

[17] = target: T17, LTK (Homo sapiens, UniProt P29376)
T17 construct: purchased Eurofins DiscoverX KINOMEscan
Method in brief: as §1

[18] = target: T18, ITK (Homo sapiens, UniProt Q08881)
T18 construct: purchased Eurofins DiscoverX KINOMEscan
T18 sequence (Q08881 whole entry): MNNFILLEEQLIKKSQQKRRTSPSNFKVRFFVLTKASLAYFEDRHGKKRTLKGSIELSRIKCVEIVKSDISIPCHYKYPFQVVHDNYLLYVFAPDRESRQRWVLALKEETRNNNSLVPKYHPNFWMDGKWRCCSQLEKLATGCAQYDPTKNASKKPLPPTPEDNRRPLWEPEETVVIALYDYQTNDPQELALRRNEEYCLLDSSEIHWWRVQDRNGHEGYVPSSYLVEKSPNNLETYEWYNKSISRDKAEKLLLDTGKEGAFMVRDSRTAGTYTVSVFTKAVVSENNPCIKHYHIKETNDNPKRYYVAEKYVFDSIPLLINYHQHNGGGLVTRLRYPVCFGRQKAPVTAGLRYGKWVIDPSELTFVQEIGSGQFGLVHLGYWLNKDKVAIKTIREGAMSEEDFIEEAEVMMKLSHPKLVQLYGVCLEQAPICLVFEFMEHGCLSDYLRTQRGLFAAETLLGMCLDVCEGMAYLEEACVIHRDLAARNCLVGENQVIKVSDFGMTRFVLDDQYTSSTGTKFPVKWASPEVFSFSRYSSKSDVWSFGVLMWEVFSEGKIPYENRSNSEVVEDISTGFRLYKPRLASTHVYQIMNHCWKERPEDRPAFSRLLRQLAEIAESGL
Method in brief: as §1

[19] = target: T19, DCAMKL1 (Homo sapiens, UniProt O15075)
T19 construct: purchased Eurofins DiscoverX KINOMEscan
Method in brief: as §1

[20] = target: T20, YANK2 (Homo sapiens, UniProt Q9NY57)
T20 construct: purchased Eurofins DiscoverX KINOMEscan
Method in brief: as §1

[21] = target: T21, ERK4 (Homo sapiens, UniProt P31152)
T21 construct: purchased Eurofins DiscoverX KINOMEscan
T21 sequence (P31152 whole entry): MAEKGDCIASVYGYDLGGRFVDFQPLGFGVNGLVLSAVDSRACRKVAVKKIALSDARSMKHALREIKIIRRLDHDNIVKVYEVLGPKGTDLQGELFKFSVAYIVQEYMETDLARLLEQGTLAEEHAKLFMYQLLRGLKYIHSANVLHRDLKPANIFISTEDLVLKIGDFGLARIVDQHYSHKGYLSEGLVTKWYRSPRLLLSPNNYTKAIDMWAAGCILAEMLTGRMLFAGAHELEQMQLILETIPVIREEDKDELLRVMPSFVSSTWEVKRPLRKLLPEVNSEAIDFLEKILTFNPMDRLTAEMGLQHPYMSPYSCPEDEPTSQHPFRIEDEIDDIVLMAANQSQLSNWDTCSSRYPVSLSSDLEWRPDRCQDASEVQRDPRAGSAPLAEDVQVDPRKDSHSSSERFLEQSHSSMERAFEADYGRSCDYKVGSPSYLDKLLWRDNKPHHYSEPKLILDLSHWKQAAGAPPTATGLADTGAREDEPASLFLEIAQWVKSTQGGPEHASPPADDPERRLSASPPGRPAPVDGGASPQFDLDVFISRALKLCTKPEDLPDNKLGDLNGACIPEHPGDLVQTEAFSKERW
Method in brief: as §1

[22] = target: T22, MRCKA (Homo sapiens, UniProt Q5VT25)
T22 construct: purchased Eurofins DiscoverX KINOMEscan
Method in brief: as §1

[23] = target: T23, BMPR2 (Homo sapiens, UniProt Q13873)
T23 construct: purchased Eurofins DiscoverX KINOMEscan
Method in brief: as §1

[24] = target: T24, LOK (Homo sapiens, UniProt O94804)
T24 construct: purchased Eurofins DiscoverX KINOMEscan
Method in brief: as §1

[25] = target: T25, AURKC (Homo sapiens, UniProt Q9UQB9)
T25 construct: purchased Eurofins DiscoverX KINOMEscan
T25 sequence (Q9UQB9 whole entry): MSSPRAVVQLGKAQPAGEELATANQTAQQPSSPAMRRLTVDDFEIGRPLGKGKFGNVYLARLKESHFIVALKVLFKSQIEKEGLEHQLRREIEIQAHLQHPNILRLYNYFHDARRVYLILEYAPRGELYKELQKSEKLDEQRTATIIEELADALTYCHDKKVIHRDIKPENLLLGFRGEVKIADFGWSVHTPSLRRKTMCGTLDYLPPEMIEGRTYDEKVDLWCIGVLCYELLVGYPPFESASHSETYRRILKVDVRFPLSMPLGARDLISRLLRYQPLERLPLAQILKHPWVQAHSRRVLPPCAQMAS
Method in brief: as §1

[26] = target: T26, PRKD2 (Homo sapiens, UniProt Q9BZL6)
T26 construct: purchased Eurofins DiscoverX KINOMEscan
Method in brief: as §1

[27] = target: T27, CSNK1G2 (Homo sapiens, UniProt P78368)
T27 construct: purchased Eurofins DiscoverX KINOMEscan
Method in brief: as §1

[28] = target: T28, PIP5K2B (Homo sapiens, UniProt P78356)
T28 construct: purchased Eurofins DiscoverX KINOMEscan
Method in brief: as §1

[29] = target: T29, MERTK (Homo sapiens, UniProt Q12866)
T29 construct: purchased Eurofins DiscoverX KINOMEscan
Method in brief: as §1

[30] = target: T30, FLT1 (Homo sapiens, UniProt P17948)
T30 construct: purchased Eurofins DiscoverX KINOMEscan
Method in brief: as §1

[31] = target: T31, NEK11 (Homo sapiens, UniProt Q8NG66)
T31 construct: purchased Eurofins DiscoverX KINOMEscan
Method in brief: as §1

[32] = target: T32, ABL1 (Q252H)-P (Homo sapiens, UniProt P00519, Q252H)
T32 construct: purchased Eurofins DiscoverX KINOMEscan
Method in brief: as §1

[33] = target: T33, EPHB2 (Homo sapiens, UniProt P29323)
T33 construct: purchased Eurofins DiscoverX KINOMEscan
T33 sequence (P29323 19-1055): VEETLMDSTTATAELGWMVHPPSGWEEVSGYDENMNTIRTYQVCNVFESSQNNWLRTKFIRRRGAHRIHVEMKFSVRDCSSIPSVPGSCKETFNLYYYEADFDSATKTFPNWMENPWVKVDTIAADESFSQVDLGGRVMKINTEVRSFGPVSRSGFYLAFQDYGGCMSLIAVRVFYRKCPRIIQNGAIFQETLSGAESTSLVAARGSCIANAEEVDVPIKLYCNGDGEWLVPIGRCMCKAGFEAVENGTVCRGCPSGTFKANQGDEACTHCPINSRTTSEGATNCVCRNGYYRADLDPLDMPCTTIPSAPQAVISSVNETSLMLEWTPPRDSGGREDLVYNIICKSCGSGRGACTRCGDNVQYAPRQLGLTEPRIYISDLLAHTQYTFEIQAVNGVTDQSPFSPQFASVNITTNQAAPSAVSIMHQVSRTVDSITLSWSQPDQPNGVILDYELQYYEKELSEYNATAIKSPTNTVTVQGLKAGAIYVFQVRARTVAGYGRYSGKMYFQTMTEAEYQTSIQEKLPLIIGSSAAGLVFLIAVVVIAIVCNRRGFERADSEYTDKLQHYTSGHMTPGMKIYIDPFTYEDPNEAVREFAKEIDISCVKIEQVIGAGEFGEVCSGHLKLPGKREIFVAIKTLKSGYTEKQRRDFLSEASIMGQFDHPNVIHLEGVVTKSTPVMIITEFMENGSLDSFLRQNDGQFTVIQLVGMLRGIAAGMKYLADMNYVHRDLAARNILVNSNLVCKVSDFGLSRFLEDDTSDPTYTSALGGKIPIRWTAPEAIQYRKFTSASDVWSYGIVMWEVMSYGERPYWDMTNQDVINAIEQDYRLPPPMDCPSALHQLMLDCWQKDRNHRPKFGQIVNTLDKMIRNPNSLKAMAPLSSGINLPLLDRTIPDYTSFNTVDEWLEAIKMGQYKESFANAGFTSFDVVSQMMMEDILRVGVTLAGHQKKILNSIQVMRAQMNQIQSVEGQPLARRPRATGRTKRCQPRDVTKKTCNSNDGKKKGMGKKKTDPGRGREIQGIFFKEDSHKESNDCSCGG
Method in brief: as §1

[34] = target: T34, WNK4 (Homo sapiens, UniProt Q96J92)
T34 construct: purchased Eurofins DiscoverX KINOMEscan
Method in brief: as §1

[35] = target: T35, EGFR (L858R, T790M) (Homo sapiens, UniProt P00533, L858R/T790M)
T35 construct: purchased Eurofins DiscoverX KINOMEscan
T35 sequence (P00533 25-1210 T790M/L858R): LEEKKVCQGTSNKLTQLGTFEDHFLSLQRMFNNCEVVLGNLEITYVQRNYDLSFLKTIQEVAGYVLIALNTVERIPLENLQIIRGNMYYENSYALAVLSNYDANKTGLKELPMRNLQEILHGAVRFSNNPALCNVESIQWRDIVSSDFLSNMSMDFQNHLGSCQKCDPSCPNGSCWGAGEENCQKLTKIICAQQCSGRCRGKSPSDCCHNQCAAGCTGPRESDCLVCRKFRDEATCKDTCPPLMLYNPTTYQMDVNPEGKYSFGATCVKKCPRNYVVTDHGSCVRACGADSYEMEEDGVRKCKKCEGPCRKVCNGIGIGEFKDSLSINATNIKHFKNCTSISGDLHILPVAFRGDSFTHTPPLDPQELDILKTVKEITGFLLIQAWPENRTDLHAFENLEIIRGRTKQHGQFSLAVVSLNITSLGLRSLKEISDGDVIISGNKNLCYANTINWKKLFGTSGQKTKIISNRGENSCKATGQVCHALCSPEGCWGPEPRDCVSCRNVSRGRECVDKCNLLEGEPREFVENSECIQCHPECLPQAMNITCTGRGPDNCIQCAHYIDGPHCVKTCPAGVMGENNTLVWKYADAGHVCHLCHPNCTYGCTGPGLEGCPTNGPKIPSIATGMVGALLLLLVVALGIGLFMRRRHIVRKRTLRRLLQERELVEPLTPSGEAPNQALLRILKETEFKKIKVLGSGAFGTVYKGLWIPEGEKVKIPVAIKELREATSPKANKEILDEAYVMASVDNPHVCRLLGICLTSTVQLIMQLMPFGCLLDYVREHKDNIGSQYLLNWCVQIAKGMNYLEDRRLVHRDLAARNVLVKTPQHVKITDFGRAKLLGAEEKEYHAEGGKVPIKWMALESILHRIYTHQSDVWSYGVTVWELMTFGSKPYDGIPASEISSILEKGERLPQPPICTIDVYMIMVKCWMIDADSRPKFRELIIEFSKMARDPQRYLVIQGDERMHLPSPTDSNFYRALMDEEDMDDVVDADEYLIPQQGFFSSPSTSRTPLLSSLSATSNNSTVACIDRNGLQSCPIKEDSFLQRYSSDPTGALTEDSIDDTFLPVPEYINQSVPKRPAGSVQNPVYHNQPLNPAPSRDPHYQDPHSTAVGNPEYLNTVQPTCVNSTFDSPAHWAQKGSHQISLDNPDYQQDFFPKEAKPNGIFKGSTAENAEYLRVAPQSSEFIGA
Method in brief: as §1

[36] = target: T36, CAMKK2 (Homo sapiens, UniProt Q96RR4)
T36 construct: purchased Eurofins DiscoverX KINOMEscan
Method in brief: as §1

[37] = target: T37, CAMKK1 (Homo sapiens, UniProt Q8N5S9)
T37 construct: purchased Eurofins DiscoverX KINOMEscan
Method in brief: as §1

[38] = target: T38, TNIK (Homo sapiens, UniProt Q9UKE5)
T38 construct: purchased Eurofins DiscoverX KINOMEscan
Method in brief: as §1

[39] = target: T39, RIPK1 (Homo sapiens, UniProt Q13546)
T39 construct: purchased Eurofins DiscoverX KINOMEscan
Method in brief: as §1

O=C1Nc2c(cc([N+](=O)[O-])c3c2CCCC3)C1=NO [Compound 5d, 3-(Hydroxyimino)-5-nitro-1,3,6,7,8,9-hexahydro-2H-benzo[g]indol-2-one] was tested, and the inhibition at 10 µM [1] was 2%, the inhibition at 10 µM [2] was 17% and the inhibition at 10 µM [3] was 76%. The inhibition at 10 µM [4] was 28%, the inhibition at 10 µM [5] was 84% and the inhibition at 10 µM [6] was 30%. The inhibition at 10 µM [7] was 0%, the inhibition at 10 µM [8] was 0% and the inhibition at 10 µM [9] was 7%. For the same compound, the inhibition at 10 µM [10] was 20%, the inhibition at 10 µM [11] was 7% and the inhibition at 10 µM [12] was 40%. For the same compound, the inhibition at 10 µM [13] was 0%, the inhibition at 10 µM [14] was 25% and the inhibition at 10 µM [15] was 19%. It also gave an inhibition at 10 µM [16] of 0%, an inhibition at 10 µM [17] of 64% and an inhibition at 10 µM [18] of 0%. It also gave an inhibition at 10 µM [19] of 29%, an inhibition at 10 µM [20] of 0% and an inhibition at 10 µM [21] of 0%. The inhibition at 10 µM [22] was 17%, the inhibition at 10 µM [23] was 64% and the inhibition at 10 µM [24] was 73%. The inhibition at 10 µM [25] was 39%, the inhibition at 10 µM [26] was 77% and the inhibition at 10 µM [27] was 90%. It also gave an inhibition at 10 µM [28] of 64%, an inhibition at 10 µM [29] of 4% and an inhibition at 10 µM [30] of 12%. For the same compound, the inhibition at 10 µM [31] was 46%, the inhibition at 10 µM [32] was 47% and the inhibition at 10 µM [33] was 11%. The inhibition at 10 µM [34] was 1%, the inhibition at 10 µM [35] was 2% and the inhibition at 10 µM [36] was 56%. It also gave an inhibition at 10 µM [37] of 9%, an inhibition at 10 µM [38] of 65% and an inhibition at 10 µM [39] of 0%.

— PMC12300041, “Tricyclic Isatin Derivatives as Anti-Inflammatory Compounds with High Kinase Binding Affinity” (Molecules, 2025)
